Laboratory results reported in patent publication US10131642B1, “Aldosterone synthase inhibitors” (Boehringer Ingelheim International GmbH, priority 2015, dated 2018).

Assays:
[1] = target: T1, aldosterone synthase (CYP11B2) (Macaca fascicularis, UniProt A0A2K5UPL9); assay: Inhibition of aldosterone synthase (cynomolgus adrenal mitochondria, aldosterone by mass spectrometry); type: biochemical, cynomolgus monkey; conditions: cynomolgus adrenal gland mitochondria, 2 μM corticosterone substrate, 90 minutes at 37° C.
T1 construct: cynomolgus adrenal gland mitochondria as the source of aldosterone synthase (CYP11B2); from tissue; host or cells: cynomolgus monkey adrenal gland mitochondria
T1 sequence (A0A2K5UPL9 1-503): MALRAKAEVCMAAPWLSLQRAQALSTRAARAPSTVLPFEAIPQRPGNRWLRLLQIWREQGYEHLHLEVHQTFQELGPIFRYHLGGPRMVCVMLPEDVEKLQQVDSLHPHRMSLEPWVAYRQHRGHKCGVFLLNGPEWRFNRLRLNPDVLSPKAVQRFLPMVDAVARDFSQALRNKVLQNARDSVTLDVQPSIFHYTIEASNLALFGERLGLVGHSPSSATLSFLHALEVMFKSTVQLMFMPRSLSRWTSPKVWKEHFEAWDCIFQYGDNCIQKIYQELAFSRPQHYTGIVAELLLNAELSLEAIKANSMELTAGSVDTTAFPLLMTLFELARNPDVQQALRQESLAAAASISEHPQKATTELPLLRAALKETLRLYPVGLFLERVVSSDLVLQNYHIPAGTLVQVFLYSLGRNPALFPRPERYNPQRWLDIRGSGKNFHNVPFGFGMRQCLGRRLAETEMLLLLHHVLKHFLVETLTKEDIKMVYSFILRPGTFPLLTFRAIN
Description: (§1) The aldosterone synthase and cortisol synthase inhibition assays employ cynomolgus adrenal gland mitochondria as the source of aldosterone synthase (CYP11B2) and cortisol synthase (CYP11B1). Mitochondria are prepared from frozen cynomolgus monkey adrenal glands according to Method A described in by J. D. McGarry et al. (Biochem. J., 1983, 214, 21-28), with a final resuspension in the AT buffer described in R. Yamaguchi et al. (Cell Death and Differentiation, 2007, 14, 616-624), frozen as aliquots in liquid nitrogen and stored at −80° C. until use. Activity of CYP11B2 and CYP11B1 in these preparations is defined as the amount of enzyme that generates 1 pmol of product in one hour under the conditions described.
Assays are performed in 96-well format in a final volume of 60 µL/well, containing 100 mM potassium phosphate, pH 7.4, 1% (v/v) DMSO, and additionally, 2 μM of corticosterone and 50 units of CYP11B2 activity. Reactions are started by the addition of NADPH to 1 mM and allowed to proceed for 90 minutes at 37° C. Reactions are terminated by the addition of 60 μL of MeCN containing an internal standard for mass spectrometry. One hundred microliters are then transferred to a glass filter plate and centrifuged at 570×g for 5 minutes and the filtrate is collected. Reaction product aldosterone is quantified by mass spectrometry. To determine the assay blank value (0% activity), NADPH is omitted from some reactions.
Dose dependent inhibition is quantified by the inclusion of compound at various concentrations. Maximum activity (100%) is defined by reactions containing NADPH, but without compound. Activities at each concentration are expressed as a percentage of the maximum activity (y-axis) and plotted against concentration of compound (x-axis) and the concentration corresponding to 50% activity (IC50) determined using the XLFit curve-fitting program using a 4-parameter logistic model.

[2] = target: cortisol synthase (CYP11B1) (Macaca fascicularis, UniProt A0A2K5ULY1); assay: Inhibition of cortisol synthesis (cynomolgus adrenal mitochondria, cortisol by mass spectrometry); type: biochemical, cynomolgus monkey; conditions: cynomolgus adrenal gland mitochondria, 11-deoxycortisol as substrate, cortisol measured as product; read-out: CYP11B1 Inhibition IC50
Description: as §1, with “described. Dose dependent inhibition is quantified by the inclusion of compound at various concentrations. Maximum activity (100%) is defined by reactions containing NADPH, but without compound. Activities at each concentration are expressed as a percentage of the maximum activity (y-axis) and plotted against concentration of compound (x-axis) and the concentration corresponding to 50% activity (IC50) determined using the XLFit curve-fitting program using a 4-parameter logistic model. Assays are performed as for aldosterone synthase except for the use of 150 units of CYP11B1, 11-deoxycortisol as substrate and cortisol measured as product.” for “described.”

IC50 [1] [µM]	IC50 [2] [µM]	SMILES
0.08	2.6	O=C1CC(Cc2ccccc2)Cc2noc(Cc3ccc(C(=O)N4CC[C@@H](O)C4)cc3)c21 (stereo partly drawn) [Cpd 57, 6-Benzyl-3-[4-((R)-3-hydroxy-pyrrolidine-l-carbonyl)-benzyl]-6,7-dihydro-5H-benzo[c]isoxazol-4-one]
0.089	3.4	COCCNC(=O)c1ccc(Cc2onc3c2C(=O)CC(C)(C)C3)cc1 [Cpd 58, 4-(6,6-Dimethyl-4-oxo-4,5,6,7-tetrahydro-benzo[c]isoxazol-3-ylmethyl)-N-(2-methoxy-ethyl)-benzamide]
0.092	11	CN(CCO)C(=O)c1ccc(Cc2onc3c2C(=O)CC(C)(C)C3)cc1 [Cpd 59, 4-(6,6-Dimethyl-4-oxo-4,5,6,7-tetrahydro-benzo[c]isoxazol-3-ylmethyl)-N-(2-hydroxy-ethyl)-N-methyl-benzamide]
0.094	5.9	CC1(C)CC(=O)c2c(noc2Cc2ccc(C(=O)N3CCC[C@H](O)C3)cc2)C1 [Cpd 60, 3-[4-((S)-3-Hydroxy-piperidine-1-carbonyl)-benzyl]-6,6-dimethyl-6,7-dihydro-5H-benzo[c]isoxazol-4-one]
0.091	7.4	CC1(C)CC(=O)c2c(noc2Cc2ccc(C(=O)NCCS(C)(=O)=O)cc2)C1 [Cpd 61, 4-(6,6-Dimethyl-4-oxo-4,5,6,7-tetrahydro-benzo[c]isoxazol-3-ylmethyl)-N-(2-methanesulfonyl-ethyl)-benzamide]
0.098	20	CC1(C)CC(=O)c2c(noc2Cc2ccc(C(=O)N3CCNC(=O)C3)cc2)C1 [Cpd 62, 6,6-Dimethyl-3-[4-(3-oxo-piperazine-1-carbonyl)-benzyl]-6,7-dihydro-5H-benzo[c]isoxazol-4-one]
0.11	4.1	O=C1CC(CC2CC2)Cc2noc(Cc3ccc(C(=O)N4CC[C@@H](O)C4)cc3)c21 (stereo partly drawn) [Cpd 63, 6-Cyclopropylmethyl-3-[4-((R)-3-hydroxy-pyrrolidine-1-carbonyl)-benzyl]-6,7-dihydro-5H-benzo[c]isoxazol-4-one]
0.11	9.3	CN(CCS(C)(=O)=O)C(=O)c1ccc(Cc2onc3c2C(=O)CC(C)(C)C3)cc1 [Cpd 64, 4-(6,6-Dimethyl-4-oxo-4,5,6,7-tetrahydro-benzo[c]isoxazol-3-ylmethyl)-N-(2-methanesulfonyl-ethyl)-N-methyl-benzamide]
0.11	7.6	CC1(C)CC(=O)c2c(noc2Cc2ccc(C(=O)N3CC[C@H](O)C3)cc2)C1 [Cpd 65, 3-[4-((S)-3-Hydroxy-pyrrolidine-1-carbonyl)-benzyl]-6,6-dimethyl-6,7-dihydro-5H-benzo[c]isoxazol-4-one]
0.12	5	CC1CC(=O)c2c(noc2Cc2ccc(C(=O)N3CCN(C)C(=O)C3)cc2)C1 (stereo not drawn) [Cpd 66, 6-Methyl-3-[4-(4-methyl-3-oxo-piperazine-l-carbonyl)-benzyl]-6,7-dihydro-5H-benzo[c]isoxazol-4-one]
0.12	7.3	CC(C)N(CCO)C(=O)c1ccc(Cc2onc3c2C(=O)CC(C)(C)C3)cc1 [Cpd 67, 4-(6,6-Dimethyl-4-oxo-4,5,6,7-tetrahydro-benzo[c]isoxazol-3-ylmethyl)-N-(2-hydroxy-ethyl)-N-isopropyl-benzamide]
0.16	7.8	CC1(C)CC(=O)c2c(noc2Cc2ccc(C(=O)NCCC#N)cc2)C1 [Cpd 68, N-(2-Cyano-ethyl)-4-(6,6-dimethyl-4-oxo-4,5,6,7-tetrahydro-benzo[c]isoxazol-3-ylmethyl)-benzamide]
0.16	13	CC1(C)CC(=O)c2c(noc2Cc2ccc(C(=O)NCC3(O)CC3)cc2)C1 [Cpd 69, 4-(6,6-Dimethyl-4-oxo-4,5,6,7-tetrahydro-benzo[c]isoxazol-3-ylmethyl)-N-(1-hydroxy-cyclopropylmethyl)-benzamide]
0.16	11	CC1(C)CC(=O)c2c(noc2Cc2ccc(C(=O)NCC3(CO)CCCC3)cc2)C1 [Cpd 70, 4-(6,6-Dimethyl-4-oxo-4,5,6,7-tetrahydro-benzo[c]isoxazol-3-ylmethyl)-N-(1-hydroxymethyl-cyclopentylmethyl)-benzamide]
0.17	20	C[C@H](O)CNC(=O)c1ccc(Cc2onc3c2C(=O)CC(C)(C)C3)cc1 [Cpd 71, 4-(6,6-Dimethyl-4-oxo-4,5,6,7-tetrahydro-benzo[c]isoxazol-3-ylmethyl)-N-((S)-2-hydroxy-propyl)-benzamide]
0.18	5.9	CC1(C)CC(=O)c2c(noc2Cc2ccc(C(=O)N3CCC[C@@H](O)C3)cc2)C1 [Cpd 72, 3-[4-((R)-3-Hydroxy-piperidine-1-carbonyl)-benzyl]-6,6-dimethyl-6,7-dihydro-5H-benzo[c]isoxazol-4-one]
0.23	23	C[C@@H](O)CNC(=O)c1ccc(Cc2onc3c2C(=O)CC(C)(C)C3)cc1 [Cpd 73, 4-(6,6-Dimethyl-4-oxo-4,5,6,7-tetrahydro-benzo[c]isoxazol-3-ylmethyl)-N-((R)-2-hydroxy-propyl)-benzamide]
0.082	3	CC1CC(=O)c2c(noc2Cc2ccc(C(N)=O)cc2)C1 (centres unmarked) [Cpd 74, 4-(6-Methyl-4-oxo-4,5,6,7-tetrahydro-benzo[c]isoxazol-3-ylmethyl)-benzamide]
0.1	15	CC1(C)CC(=O)c2c(noc2Cc2ccc(C(N)=O)cc2)C1 [Cpd 75, 4-(6,6-Dimethyl-4-oxo-4,5,6,7-tetrahydro-benzo[c]isoxazol-3-ylmethyl)-benzamide]
0.025	0.53	CC(C)C1CC(=O)c2c(noc2Cc2ccc(C(N)=O)cc2)C1 (centres unmarked) [Cpd 76, 4-(6-Isopropyl-4-oxo-4,5,6,7-tetrahydro-benzo[c]isoxazol-3-ylmethyl)-benzamide]
0.012	0.13	NC(=O)c1ccc(Cc2onc3c2C(=O)CC2(CCC2)C3)cc1 [Cpd 77, 4-(-6,6-spiro-cyclobutyl-4-oxo-4,5,6,7-tetrahydro-benzo[c]isoxazol-3-ylmethyl)-benzamide]
0.024	3.3	CC1(C)CC(=O)c2c(noc2Cc2ccc(OCCCC(N)=O)cc2)C1 [Cpd 78]
0.023	7.8	CN(C)C(=O)CCCOc1ccc(Cc2onc3c2C(=O)CC(C)(C)C3)cc1 [Cpd 79]
0.029	1.8	CNC(=O)CCOc1ccc(Cc2onc3c2C(=O)CC(C)(C)C3)cc1 [Cpd 80, 3-[4-(6,6-Dimethyl-4-oxo-4,5,6,7-tetrahydro-benzo[c]isoxazol-3-ylmethyl)-phenoxy]-N-methyl-propionamide]
0.035	2.5	CC1(C)CC(=O)c2c(noc2Cc2ccc(OCCC(N)=O)cc2)C1 [Cpd 81, 3-[4-(6,6-Dimethyl-4-oxo-4,5,6,7-tetrahydro-benzo[c]isoxazol-3-ylmethyl)-phenoxy]-propionamide]
